Read-outs that look alike come from different tables or passages of the source.

In one assay the target is NDM-1 (Klebsiella pneumoniae, UniProt C7C422). Put plainly: In vitro MBLs inhibition assay with CENTA substrate, NDM-1. The following applies: for inhibition at 5 µM: 5 µM compound, CENTA 70 µM. The format is biochemical. The method, then:
(§1) Assays of enzyme inhibition were measured in the absence and presence of 5 µM of compound 4a–c and their ZnO conjugated hybrids to determine their inhibitory activity (IMP1 and NDM-1). CENTA (70 µM), a chromogenic cephalosporin substrate, was employed. The chromophore […] is formed when MBLs hydrolyze CENTA, and its generation may be detected spectrophotometrically using a plate reader at = 405 nm (at pH 7.0, ε = 6400 M^−1 cm^−1). Assays of kinetics of the inhibition experiments were carried out in accordance with earlier research. Non-linear regression was used to examine the inhibition data.

A further assay has as its target IMP-1 (Serratia marcescens, UniProt P52699). In words: In vitro MBLs inhibition assay with CENTA substrate, IMP-1. The following applies: for inhibition at 5 µM: 5 µM compound, CENTA 70 µM, read-out: % Inhibition IPM-1 (5 µM). The format is biochemical. The method, then: as §1
Setting [1] is: inhibition constant for the competitive inhibition mode, read-out: NDM-1 Kic.
[2] abbreviates: inhibition constant for the uncompetitive inhibition mode, read-out: NDM-1 Kiuc.
Setting [3] is: inhibition constant for the competitive inhibition mode, read-out: IPM-1 Kic.
[4] abbreviates: inhibition constant for the uncompetitive inhibition mode, read-out: IPM-1 Kiuc.

IMP-1, sequence (P52699 19-246, looked up, species assumed): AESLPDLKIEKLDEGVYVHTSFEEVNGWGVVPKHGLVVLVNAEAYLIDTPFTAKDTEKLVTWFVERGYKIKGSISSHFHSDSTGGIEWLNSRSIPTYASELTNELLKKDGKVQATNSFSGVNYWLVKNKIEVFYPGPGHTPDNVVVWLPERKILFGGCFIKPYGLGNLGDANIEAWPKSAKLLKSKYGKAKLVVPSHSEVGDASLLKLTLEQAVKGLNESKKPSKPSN
NDM-1, sequence (C7C422 29-270, looked up, species assumed): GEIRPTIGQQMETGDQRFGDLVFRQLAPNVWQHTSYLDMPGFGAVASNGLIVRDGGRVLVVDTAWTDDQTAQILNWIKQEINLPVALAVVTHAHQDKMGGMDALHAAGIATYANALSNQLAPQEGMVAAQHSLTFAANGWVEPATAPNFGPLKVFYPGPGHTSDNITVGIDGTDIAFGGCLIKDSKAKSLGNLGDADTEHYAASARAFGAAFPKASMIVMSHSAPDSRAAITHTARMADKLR

The inhibition is the share of the control response that was lost under treatment. With `O=S(=O)(Nc1ncccn1)c1ccc(-n2cc(CO)nn2)cc1` [Compound 3a], the inhibition at 5 µM on NDM-1 was determined as 71.2%; at IMP-1, 75%. In addition, the Ki was determined as 9.6 µM on NDM-1 (setting [1]), 6 µM at NDM-1 (setting [2]), 11.8 µM at IMP-1 (setting [3]) and 7.7 µM on IMP-1 (setting [4]).
For the compound `O=S(=O)(Nc1ccccn1)c1ccc(-n2cc(CO)nn2)cc1` [Compound 3b], the values for the inhibition at 5 µM at NDM-1 and on IMP-1 were 68.7% and 75.4%, respectively. For the same compound, the Ki worked out at 9 µM at NDM-1 (setting [1]), 6 µM at NDM-1 (setting [2]), 11.4 µM at IMP-1 (setting [3]) and 7.6 µM at IMP-1 (setting [4]).
Consider `NC(N)=NS(=O)(=O)c1ccc(-n2cc(CO)nn2)cc1` [Compound 3c], for which the inhibition at 5 µM came out at 64.3% against NDM-1 and 72.9% on IMP-1. For the same compound, the Ki at NDM-1 (setting [1]) was found to be 8.5 µM; at NDM-1 (setting [2]), 3.9 µM; at IMP-1 (setting [3]), 10.9 µM; on IMP-1 (setting [4]) it was 5.1 µM.

Source of the values: paper PMC9312158, “Novel 1,2,3-Triazole-sulphadiazine-ZnO Hybrids as Potent Antimicrobial Agents against Carbapenem Resistant Bacteria” (Antibiotics, 2022).
